Data taken from ChEMBL document CHEMBL5537185, “Discovery of the First-in-Class RORγ Covalent Inhibitors for Treatment of Castration-Resistant Prostate Cancer” (J Med Chem, 2024).
Blank lines part the entries; values can stand above or below the molecule they belong to. Calls of active or inactive are those of the source. The rule behind the calls is not given here.

Experiments:
[1] = biological target: T1, Nuclear receptor ROR-gamma (Homo sapiens, UniProt P51449); assay: Inhibition of Gal4-fused RORgamma LBD (unknown origin) expressed in HEK293T cells incubated for 48 hrs by luciferase based assay; type: cell-based
T1 sequence (P51449 whole entry): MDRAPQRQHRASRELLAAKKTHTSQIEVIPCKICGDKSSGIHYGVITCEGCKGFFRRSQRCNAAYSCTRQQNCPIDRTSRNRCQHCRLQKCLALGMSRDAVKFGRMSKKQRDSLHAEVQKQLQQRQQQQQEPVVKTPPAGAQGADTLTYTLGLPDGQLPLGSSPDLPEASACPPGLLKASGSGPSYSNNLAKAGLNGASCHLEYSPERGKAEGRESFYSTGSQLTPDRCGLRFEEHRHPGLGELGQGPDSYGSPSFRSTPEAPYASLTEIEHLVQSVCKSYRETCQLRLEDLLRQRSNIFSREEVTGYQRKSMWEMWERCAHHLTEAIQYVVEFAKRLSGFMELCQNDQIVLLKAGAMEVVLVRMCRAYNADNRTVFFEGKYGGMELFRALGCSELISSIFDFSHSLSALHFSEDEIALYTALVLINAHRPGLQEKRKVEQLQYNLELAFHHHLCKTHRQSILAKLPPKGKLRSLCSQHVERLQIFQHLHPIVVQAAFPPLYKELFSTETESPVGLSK

LNCaP = assay: Antiproliferative activity against human LNCaP cells incubated for 4 days by CCK8 assay; details: 96 h
LNCaP C4-2B [2] = assay: Antiproliferative activity against human LNCaP C4-2B cells incubated for 4 days by CCK8 assay; details: 96 h
CWR22R [3] = assay: Antiproliferative activity against human 22Rv1 cells incubated for 4 days by CCK8 assay; details: 22Rv1, 96 h
CWR22R [4] = assay: Induction of apoptosis in human 22Rv1 cells assessed as increase in caspase-7 activity at 1.25 to 5 uM by Western blot analysis; type: functional, cell-based; details: dose 1.25-5 µM
CWR22R [5] = assay: Downregulation of NKX3-1 mRNA expression in human 22Rv1 cells at 1.25 to 5 uM incubated for 48 hrs by qRT-PCR analysis; type: functional, cell-based; details: dose 1.25-5 µM
[6] = AUClast in ICR mouse at 10 mg/kg, po measured upto 24 hrs by LC-MS/MS analysis; type: ADME, organism-based; details: in vivo
LNCaP C4-2B [7] = assay: Downregulation of AR expression in human LNCaP C4-2B cells at 1.25 to 5 uM incubated for 48 hrs by qRT-PCR analysis; type: functional, cell-based; details: dose 1.25-5 µM
[8] = Cmax in ICR mouse at 3 mg/kg, iv measured upto 24 hrs by LC-MS/MS analysis; type: ADME, organism-based; details: in vivo
[9] = AUClast in ICR mouse at 3 mg/kg, iv measured upto 24 hrs by LC-MS/MS analysis; type: ADME, organism-based; details: in vivo
[10] = AUCinfinity in ICR mouse at 10 mg/kg, po measured upto 24 hrs by LC-MS/MS analysis; type: ADME, organism-based; details: in vivo
LNCaP C4-2B [11] = assay: Downregulation of KLK3 mRNA expression in human LNCaP C4-2B cells at 1.25 to 5 uM incubated for 48 hrs by qRT-PCR analysis; type: functional, cell-based; details: dose 1.25-5 µM
CWR22R [12] = assay: Inhibition of colony formation in human 22Rv1 cells compound addition at every 3 days and measured after 14 days by crystal violet staining based assay; type: functional, cell-based; details: dose 1.25-5 µM, time 14.0 day
[13] = Oral bioavailability in ICR mouse at 10 mg/kg measured upto 24 hrs by LC-MS/MS analysis; type: ADME, organism-based; details: in vivo
CWR22R [14] = assay: Downregulation of AR-V7 expression in human 22Rv1 cells incubated for 48 hrs by qRT-PCR analysis; type: functional, cell-based; details: dose 1.25-5 µM
[15] = Toxicity in NOD/SCID mouse assessed as change in body weight at 5 to 10 mg/kg, ip administered five times a week for 2 weeks and measured two times per week; type: organism-based; details: in vivo, 336 h, dose 5-10 mg/kg
LNCaP C4-2B [16] = assay: Downregulation of AR-V7 expression in human LNCaP C4-2B cells at 1.25 to 5 uM by Western blot analysis; type: functional, cell-based; details: dose 1.25-5 µM, TDE = time-dependent effect
CWR22R [17] = assay: Downregulation of AR-V7 expression in human 22Rv1 cells incubated for 24 to 72 hrs by Western blot analysis; type: functional, cell-based; details: dose 1.25-5 µM, time 24-72 hrs
LNCaP C4-2B [18] = assay: Downregulation of AR expression in human LNCaP C4-2B cells incubated for 24 to 72 hrs by Western blot analysis; type: functional, cell-based; details: dose 1.25-5 µM, time 24-72 hrs
[19] = AUCinfinity in ICR mouse at 3 mg/kg, iv measured upto 24 hrs by LC-MS/MS analysis; type: ADME, organism-based; details: in vivo
CWR22R [20] = assay: Induction of apoptosis in human 22Rv1 cells assessed as increase in caspase-3 activity at 1.25 to 5 uM by Western blot analysis; type: functional, cell-based; details: dose 1.25-5 µM
LNCaP C4-2B [21] = assay: Downregulation of NKX3-1 mRNA expression in human LNCaP C4-2B cells at 1.25 to 5 uM incubated for 48 hrs by qRT-PCR analysis; type: functional, cell-based; details: dose 1.25-5 µM
LNCaP C4-2B [22] = assay: Downregulation of KLK2 mRNA expression in human LNCaP C4-2B cells at 1.25 to 5 uM incubated for 48 hrs by qRT-PCR analysis; type: functional, cell-based; details: dose 1.25-5 µM
[23] = biological target: T2, Nuclear receptor ROR-gamma (Homo sapiens) (UniProt P51449); assay: Covalent binding affinity to RORgamma (unknown origin) expressed in Escherichia coli assessed as covalent adduct formation incubated for 4 hrs by mass spectrometric analysis
T2 sequence (whole entry): T1 sequence (P51449 whole entry)

LNCaP C4-2B [24] = assay: Induction of apoptosis in human LNCaP C4-2B cells assessed as increase in caspase-3 activity at 1.25 to 5 uM by Western blot analysis; type: functional, cell-based; details: dose 1.25-5 µM
[25] = Half life in ICR mouse at 3 mg/kg, iv measured upto 24 hrs by LC-MS/MS analysis; type: ADME, organism-based; details: in vivo
[26] = Volume of distribution at steady state in ICR mouse at 3 mg/kg, iv measured upto 24 hrs by LC-MS/MS analysis; type: ADME, organism-based; details: in vivo, read-out: Vdss
[27] = Toxicity in NOD/SCID mouse assessed as tolerability at 5 to 10 mg/kg, ip administered five times a week for 2 weeks and measured two times per week; type: organism-based; details: in vivo, 336 h, dose 5-10 mg/kg
[28] = Metabolic stability in mouse liver microsomes assessed as half life at 0.1 uM preincubated for 10 mins followed by NADPH addition and measured upto 60 mins by LC-MS/MS analysis; type: ADME, Microsome; details: time < 70 min
CWR22R [29] = assay: Downregulation of AR-V7 expression in human 22Rv1 cells at 1.25 to 5 uM by Western blot analysis; type: functional, cell-based; details: dose 1.25-5 µM, time 24-72 hrs, TDE = time-dependent effect
CWR22R [30] = assay: Antitumor activity against human 22Rv1 cells xenografted in ip dosed NOD/SCID mouse assessed as tumor growth inhibition administered five times a week for 2 weeks and measured two times per week; type: functional, organism-based; details: dose 5-10 mg/kg
CWR22R [31] = assay: Downregulation of KLK3 mRNA expression in human 22Rv1 cells at 1.25 to 5 uM incubated for 48 hrs by qRT-PCR analysis; type: functional, cell-based; details: dose 1.25-5 µM
LNCaP C4-2B [32] = assay: Downregulation of AR-V7 expression in human LNCaP C4-2B cells incubated for 48 hrs by qRT-PCR analysis; type: functional, cell-based; details: dose 1.25-5 µM
LNCaP C4-2B [33] = assay: Downregulation of AR-V7 expression in human LNCaP C4-2B cells incubated for 24 to 72 hrs by Western blot analysis; type: functional, cell-based; details: dose 1.25-5 µM, time 24-72 hrs
CWR22R [34] = assay: Downregulation of AR expression in human 22Rv1 cells incubated for 48 hrs by qRT-PCR analysis; type: functional, cell-based; details: dose 1.25-5 µM
LNCaP C4-2B [35] = assay: Induction of apoptosis in human LNCaP C4-2B cells assessed as increase in caspase-7 activity at 1.25 to 5 uM by Western blot analysis; type: functional, cell-based; details: dose 1.25-5 µM
LNCaP C4-2B [36] = assay: Downregulation of AR expression in human LNCaP C4-2B cells at 1.25 to 5 uM by Western blot analysis; type: functional, cell-based; details: dose 1.25-5 µM, time 24-72 hrs, TDE = time-dependent effect
CWR22R [37] = assay: Antitumor activity against human 22Rv1 cells xenografted in NOD/SCID mouse assessed as tumor growth inhibition at 5 mg/kg, ip administered five times a week for 2 weeks and measured two times per week; type: functional; details: 22Rv1, 336 h, read-out: TGI
CWR22R [38] = assay: Downregulation of AR expression in human 22Rv1 cells at 1.25 to 5 uM by Western blot analysis; type: functional, cell-based; details: dose 1.25-5 µM, time 24-72 hrs, TDE = time-dependent effect
[39] = Half life in ICR mouse at 10 mg/kg, po measured upto 24 hrs by LC-MS/MS analysis; type: ADME, organism-based; details: in vivo
[40] = Cmax in ICR mouse at 10 mg/kg, po measured upto 24 hrs by LC-MS/MS analysis; type: ADME, organism-based; details: in vivo
[41] = Clearance in ICR mouse at 3 mg/kg, iv measured upto 24 hrs by LC-MS/MS analysis; type: ADME, organism-based; details: in vivo
CWR22R [42] = assay: Downregulation of KLK2 mRNA expression in human 22Rv1 cells at 1.25 to 5 uM incubated for 48 hrs by qRT-PCR analysis; type: functional, cell-based; details: dose 1.25-5 µM
LNCaP C4-2B [43] = assay: Inhibition of colony formation in human LNCaP C4-2B cells compound addition at every 3 days and measured after 14 days by crystal violet staining based assay; type: functional, cell-based; details: dose 1.25-5 µM, time 14.0 day
CWR22R [44] = assay: Downregulation of AR expression in human 22Rv1 cells incubated for 24 to 72 hrs by Western blot analysis; type: functional, cell-based; details: dose 1.25-5 µM, time 24-72 hrs
CWR22R [45] = assay: Antitumor activity against human 22Rv1 cells xenografted in NOD/SCID mouse assessed as tumor growth inhibition at 10 mg/kg, ip administered five times a week for 2 weeks and measured two times per week; type: functional; details: 22Rv1, 336 h, read-out: TGI

IC50 [1]: > 20000 nM
Compound: C=CC(=O)Nc1ccccc1-c1ccc(NC(=O)c2cccc(C#N)c2)cc1C

IC50 (LNCaP): > 10000 nM
IC50 (LNCaP C4-2B [2]): > 10000 nM
Compound: CCC(=O)Nc1ccccc1-c1ccc(NC(=O)Cc2ccc(S(=O)(=O)CC)cc2)cc1Cl
IC50 (CWR22R [3]): > 10000 nM

AUC(0-t) at 24 h [6]: 248 ng·h/mL
Cmax [8]: 2000 ng/mL
AUC(0-t) at 24 h [9]: 584 ng·h/mL
AUC(0-inf) [10]: 251 ng·h/mL
bioavailability [13]: 12.7%
IC50 (LNCaP): 630 nM
AUC(0-inf) [19]: 585 ng·h/mL
IC50 [1]: 210 nM
Activity [23]: Active
half-life [25]: 13.2 min
Vd [26]: 0.75 L/kg
half-life at 0.1 µM [28]: 21.3 min
IC50 (LNCaP C4-2B [2]): 470 nM
half-life [39]: 36.6 min
Cmax [40]: 270 ng/mL
clearance [41]: 86.8 mL/min/kg
Compound: C=CC(=O)Nc1ccccc1-c1ccc(NC(=O)Cc2ccc(S(=O)(=O)CC)cc2)cc1Cl
Activity (CWR22R [4]): Active
Activity (CWR22R [5]): Active
Activity (LNCaP C4-2B [7]): Dose-Dependent Effect
Activity (LNCaP C4-2B [11]): Active
inhibition (CWR22R [12]): Dose-Dependent Effect
Activity (CWR22R [14]): Dose-Dependent Effect
Activity [15]: Non-Toxic
Activity (LNCaP C4-2B [16]): Tde
Activity (CWR22R [17]): Dose-Dependent Effect
Activity (LNCaP C4-2B [18]): Dose-Dependent Effect
Activity (CWR22R [20]): Active
Activity (LNCaP C4-2B [21]): Active
Activity (LNCaP C4-2B [22]): Active
Activity (LNCaP C4-2B [24]): Active
Activity [27]: Non-Toxic
Activity (CWR22R [29]): Tde
Activity (CWR22R [30]): Dose-Dependent Effect
Activity (CWR22R [31]): Active
Activity (LNCaP C4-2B [32]): Dose-Dependent Effect
Activity (LNCaP C4-2B [33]): Dose-Dependent Effect
Activity (CWR22R [34]): Dose-Dependent Effect
Activity (LNCaP C4-2B [35]): Active
Activity (LNCaP C4-2B [36]): Tde
inhibition in vivo at 5 mg/kg (CWR22R [37]): 41.9%
Activity (CWR22R [38]): Tde
IC50 (CWR22R [3]): 770 nM
Activity (CWR22R [42]): Active
inhibition (LNCaP C4-2B [43]): Dose-Dependent Effect
Activity (CWR22R [44]): Dose-Dependent Effect
inhibition in vivo at 10 mg/kg (CWR22R [45]): 62.6%
